According to patent US12649723B2, “Carbonohydrazonoyl dicyanide compounds comprising 2 or more aryl or heteroaryl connected via linker and use thereof” (KOREA INSTITUTE OF SCIENCE AND TECHNOLOGY, priority 2020, dated 2026):

How the values were obtained:
tau protein = molecular target: T1, tau protein (Homo sapiens, UniProt P10636); test: Tau-BiFC cell model: inhibition of tau protein aggregation; format: cell-based; settings: for remaining activity at 10 µM: 48 h, compound 10 μM, BiFC fluorescence, Forskolin-only group = 100% tau protein-aggregated state, read-out: Response (% @10 μM); for IC50: Tau BiFC in cells, with Forskolin 30 μM, 48 hours
T1 construct: fused on or other part: Split fluorescent-protein halves for BiFC are fused to tau; In the published tau-BiFC line these are Venus VN173 and VC155
Procedure: (§1) In order to select novel tau protein aggregation-inhibiting substances, tau-BiFC cell model, in which formation of tau oligomers in living cells is easily observed, was used. Tau-BiFC cells were aliquoted into a 384-well plate. On the next day, the cells were treated with each of the compounds prepared according to Examples 1 to 175 at concentrations of 1 μM, 3 μM, and 10 μM, together with Forskolin (at a treatment concentration of 30 μM), which is a compound inducing tau protein aggregation by activating tau […] PKA. After 48 hours, nuclei in the cells were stained using Hoechst (at a treatment concentration of 2 μg/mL), and BiFC fluorescence intensity was automatically measured using Operetta (PerkinElmer) to count stained nuclei in each well out of the entire well plate. The group treated only with Forskolin, which induces tau protein aggregation, was set to a reference point of a 100% tau protein-aggregated state, and the effects of the compounds were confirmed using the equation “BiFC fluorescence intensity due to compound synthesized according to embodiment of present invention/(fluorescence intensity of control group treated only with Forskolin inducing tau protein aggregation−fluorescence intensity of untreated control group)×100”. Furthermore, the degree of cytotoxicity induced by the newly synthesized compound was also measured based on the 100% cell viability of the group treated only with Forskolin as a reference, and the cytotoxicity value of each compound was calculated using the equation “(number of stained nuclei in group treated with compound/number of stained nuclei in group treated with Forskolin)×100”. Based on the treatment results, substances inhibiting intracellular tau protein aggregation were selected from a series of candidate groups showing a tau protein aggregation inhibition rate of 70% or more and cell viability of 100% at a compound treatment concentration of 10 μM or more.
(§2) In order to evaluate dose-dependent tau protein aggregation inhibition effects of the compounds selected according to Experimental Example 1 on tau protein aggregation, tau-BiFC cells were treated with the selected compounds at concentrations of 0.03 μM, […], 0.3 μM, 1 μM, 3 μM, 10 μM, and 30 μM, respectively, together with Forskolin (at a treatment concentration of 30 μM), which is a tau protein aggregation inducing substance. After 48 hours, tau protein aggregation reaction and degrees of cytotoxicity were analyzed by observing images of the cells. IC50 and toxicity of the compounds were analyzed by way of nonlinear regression analysis of prism software (Graph Pad).

Tau-BiFC cells = test: Cell viability (cytotoxicity) in tau-BiFC cells, count of stained nuclei; format: cell-based; settings: compound 10 μM; Forskolin-only group = 100% cell viability
Procedure: as §1, §2

T1 sequence (P10636 2-441 isoform P10636-8 limits assumed): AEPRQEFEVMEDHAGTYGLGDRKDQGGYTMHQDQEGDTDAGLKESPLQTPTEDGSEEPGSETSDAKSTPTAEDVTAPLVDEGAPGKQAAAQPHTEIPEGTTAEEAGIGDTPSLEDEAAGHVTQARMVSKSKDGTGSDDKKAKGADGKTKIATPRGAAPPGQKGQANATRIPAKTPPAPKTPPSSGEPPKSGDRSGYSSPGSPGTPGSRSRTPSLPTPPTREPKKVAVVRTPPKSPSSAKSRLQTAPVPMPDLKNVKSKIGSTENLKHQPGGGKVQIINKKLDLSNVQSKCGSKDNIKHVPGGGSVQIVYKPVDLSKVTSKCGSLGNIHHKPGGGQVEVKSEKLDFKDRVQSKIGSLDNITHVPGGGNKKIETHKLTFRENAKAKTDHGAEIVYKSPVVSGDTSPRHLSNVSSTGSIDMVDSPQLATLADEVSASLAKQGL

Compound	remaining activity at 10 µM (tau protein) [%]	IC50 (tau protein) [µM]	Cell viability (% @10 μM) (Tau-BiFC cells) [%]
Cc1cccc(C(=O)Nc2ccc(NN=C(C#N)C#N)cn2)c1 [Compound 24, (6-(3-methylbenzamido)pyridin-3-yl)carbonohydrazonoyl dicyanide]	0	< 0.3	103.9
Cc1ccccc1C(=O)Nc1ccc(NN=C(C#N)C#N)cn1 [Compound 25, (6-(2-methylbenzamido)pyridin-3-yl)carbonohydrazonoyl dicyanide]	0	0.39	122.4
N#CC(C#N)=NNc1ccc(NC(=O)c2ccccc2C(F)(F)F)nc1 [Compound 28, (6-(2-(trifluoromethyl)benzamido)pyridin-3-yl)carbonohydrazonoyl dicyanide]	0	0.54	125.8
N#CC(C#N)=NNc1ccc(NC(=O)c2ncccn2)nc1 [Compound 29, (6-(pyrimidine-2-carboxamido)pyridin-3-yl)carbonohydrazonoyl dicyanide]	0	1.04	139.9
N#CC(C#N)=NNc1ccc(NC(=O)c2cnc3ccccc3n2)nc1 [Compound 32, (6-(quinoxaline-2-carboxamido)pyridin-3-yl)carbonohydrazonoyl dicyanide]	0	0.31	145.3
Cc1cnc(C(=O)Nc2nc3ncc(NN=C(C#N)C#N)cc3s2)cn1 [Compound 33, (2-(5-methylpyrazine-2-carboxamido)thiazolo[4,5-b]pyridin-6-yl)carbonohydrazonoyl dicyanide]	63.9		125
Cc1ccc(NC(=O)c2ccc(NN=C(C#N)C#N)cn2)cc1 [Compound 34, (6-(p-tolylcarbamoyl)pyridin-3-yl)carbonohydrazonoyl dicyanide]	76	9	88.1
COc1ccc(NC(=O)c2ccc(NN=C(C#N)C#N)cn2)cc1 [Compound 35, (6-(4-methoxyphenylcarbamoyl)pyridin-3-yl)carbonohydrazonoyl dicyanide]	34.2		97.9
Cc1cnc(NC(=O)c2ccc(NN=C(C#N)C#N)cn2)cn1 [Compound 36, (6-(5-methylpyrazin-2-ylcarbamoyl)pyridin-3-yl)carbonohydrazonoyl dicyanide]	35.9		86.9
N#CC(C#N)=NNc1ccc(C(=O)Nc2ccc(Cl)cc2)nc1 [Compound 37, (6-(4-chlorophenylcarbamoyl)pyridin-3-yl)carbonohydrazonoyl dicyanide]	62.7		117.8
Cc1cncc(NC(=O)c2ccc(NN=C(C#N)C#N)cn2)c1 [Compound 39, (6-(5-methylpyridin-3-ylcarbamoyl)pyridin-3-yl)carbonohydrazonoyl dicyanide]	0	0.63	131.1
N#CC(C#N)=NNc1ccc(C(=O)Nc2cccnc2)nc1 [Compound 40, (6-(pyridin-3-ylcarbamoyl)pyridin-3-yl)carbonohydrazonoyl dicyanide]	7.9		130.7
Cc1cncc(NC(=O)c2ccc(NN=C(C#N)C#N)cn2)n1 [Compound 41, (6-(6-methylpyrazin-2-ylcarbamoyl)pyridin-3-yl)carbonohydrazonoyl dicyanide]	0		115.2
N#CC(C#N)=NNc1ccc(C(=O)Nc2cncnc2)nc1 [Compound 42, (6-(pyrimidin-5-ylcarbamoyl)pyridin-3-yl)carbonohydrazonoyl dicyanide]	0		123.1
N#CC(C#N)=NNc1ccc(C(=O)Nc2ncccn2)nc1 [Compound 43, (6-(pyrimidin-2-ylcarbamoyl)pyridin-3-yl)carbonohydrazonoyl dicyanide]	3		168.6
